One block for each compound: values may come before it.
How the values were obtained:
[1] = test system: LoVo; assay: Antiproliferative activity against human LoVo cells by SRB assay; format: functional, cell-based
[2] = test system: JIMT-1; assay: Antiproliferative activity against human JIMT1 cells by SRB assay; format: functional, cell-based
[3] = test system: MCF-10A; assay: Antiproliferative activity against human MCF10A cells by SRB assay; format: cell-based
[4] = test system: MCF7; assay: Antiproliferative activity against human MCF7 cells by SRB assay; format: functional, cell-based
[5] = Antiproliferative activity against human LoVo/DX cells by SRB assay; format: functional, cell-based
[6] = test system: SK-BR-3; assay: Antiproliferative activity against human SKBR3 cells by SRB assay; format: functional, cell-based
[7] = test system: HCC1937; assay: Antiproliferative activity against human HCC1937 cells after 72 hrs by MTT assay; format: functional, cell-based; details: HCC1937, 72 h
[8] = test system: JIMT-1; assay: Antiproliferative activity against human JIMT1 cells after 72 hrs by MTT assay; format: functional, cell-based; details: JIMT-1, 72 h
[9] = test system: 4T1; assay: Antiproliferative activity against mouse 4T1 cells by MTT assay; format: functional, cell-based
[10] = test system: MCF7; assay: Antiproliferative activity against human MCF7 cells; format: functional, cell-based
[11] = test system: JIMT-1; assay: Antiproliferative activity against human JIMT1 cells; format: functional, cell-based
[12] = test system: HCC1937; assay: Antiproliferative activity against human HCC1937 cells; format: functional, cell-based
[13] = test system: HT-29; assay: Antiproliferative activity against human HT-29 cells after 48 hrs by MTT assay; format: functional, cell-based; details: HT-29, 48 h
[14] = test system: U-87 MG; assay: Antiproliferative activity against human U87 cells by MTT assay; format: functional, cell-based, U-87MG ATCC
[15] = test system: MDA-MB-231; assay: Antiproliferative activity against human MDA-MB-231 cells by MTT assay; format: functional, cell-based
[16] = test system: JIMT-1; assay: Antiproliferative activity against human JIMT1 cells by MTT assay; format: functional, cell-based
[17] = test system: HGC-27; assay: Antiproliferative activity against human HGC27 cells after 48 hrs by MTT assay; format: functional, cell-based; details: HGC-27, 48 h
[18] = test system: HGC-27; assay: Antiproliferative activity against human HGC27 cells by MTT assay; format: functional, cell-based
[19] = test system: MCF7; assay: Antiproliferative activity against human MCF7 cells by MTT assay; format: functional, cell-based
[20] = test system: Caco-2; assay: Antiproliferative activity against human Caco2 cells by MTT assay; format: functional, cell-based
[21] = test system: HeLa; assay: Antiproliferative activity against human HeLa cells by MTT assay; format: functional, cell-based
[22] = test system: MDA-MB-231; assay: Antiproliferative activity against human MDA-MB-231 cells by SRB assay; format: functional, cell-based
[23] = Antiproliferative activity against HMLER cells by MTT assay Breast cancer stem cell; format: functional, cell-based; details: Homo sapiens
[24] = test system: MDA-MB-231; assay: Antiproliferative activity against human MDA-MB-231 cells after 48 hrs by MTT assay; format: functional, cell-based; details: MDA-MB-231, 48 h

Structure (SMILES): CC[C@@H](C(=O)[C@@H](C)[C@@H](O)[C@H](C)[C@@H]1O[C@@H]([C@@H](CC)C(=O)O)CC[C@@H]1C)[C@H]1O[C@]2(C=C[C@@H](OC(=O)c3ccc(C(=O)O[C@@H]4C=C[C@]5(O[C@H]([C@@H](CC)C(=O)[C@@H](C)[C@@H](O)[C@H](C)[C@@H]6O[C@@H]([C@@H](CC)C(=O)O)CC[C@@H]6C)[C@@H](C)C[C@H]5C)O[C@@]45CC[C@@](C)([C@H]4CC[C@](O)(CC)[C@H](C)O4)O5)cc3)[C@]3(CC[C@@](C)([C@H]4CC[C@](O)(CC)[C@H](C)O4)O3)O2)[C@H](C)C[C@@H]1C
- IC50 [1]: 1.2 µM
- IC50 [2]: 2.4 µM
- IC50 [3]: 21 µM
- IC50 [4]: 1.8 µM
- IC50 [5]: 2.8 µM
- IC50 [6]: 1 µM

Structure (SMILES): CC[C@@H](C(=O)[C@@H](C)[C@@H](O)[C@H](C)[C@@H]1O[C@@H]([C@@H](CC)C(=O)O)CC[C@@H]1C)[C@H]1O[C@]2(C=CC[C@]3(CC[C@@](C)([C@H]4CC[C@](O)(CC)[C@H](C)O4)O3)O2)[C@H](C)C[C@@H]1C
- IC50 [7]: > 10 µM
- IC50 [8]: 1.73 µM

Structure (SMILES): CC[C@@H](C(=O)[C@@H](C)[C@@H](O)[C@H](C)[C@@H]1O[C@@H]([C@@H](CC)C(=O)O)CC[C@@H]1C)[C@H]1O[C@]2(C=C[C@H](n3cc(-c4ccc(Br)cc4)nn3)[C@]3(CC[C@@](C)([C@H]4CC[C@](O)(CC)[C@H](C)O4)O3)O2)[C@H](C)C[C@@H]1C
- IC50 [9]: 3.69 µM

Structure (SMILES): CC[C@@H](C(=O)[C@@H](C)[C@@H](O)[C@H](C)[C@@H]1O[C@@H]([C@@H](CC)C(=O)O)CC[C@@H]1C)[C@H]1O[C@]2(C=C[C@H](n3cc(-c4ccccc4C(=O)OC)nn3)[C@]3(CC[C@@](C)([C@H]4CC[C@](O)(CC)[C@H](C)O4)O3)O2)[C@H](C)C[C@@H]1C
- IC50 [9]: 3.83 µM

Structure (SMILES): CC[C@@H](C(=O)[C@@H](C)[C@@H](O)[C@H](C)[C@@H]1O[C@@H]([C@@H](CC)C(=O)O)CC[C@@H]1C)[C@H]1O[C@]2(C=C[C@@H](O)[C@]3(CC[C@@](C)([C@H]4CC[C@](O)(CC)[C@H](C)O4)O3)O2)[C@H](C)C[C@@H]1C [SALINOMYCIN]
- IC50 [13]: 3.21 µM
- IC50 [14]: 38.7 µM
- IC50 [15]: 6.91 µM
- IC50 [16]: 0.52 µM
- IC50 [17]: 8.18 µM
- IC50 [18]: 2.57 µM
- IC50 [19]: 0.59 µM
- IC50 [20]: 13 µM
- IC50 [21]: 0.32 µM
- IC50 [22]: 6.42 µM
- IC50 [23]: 0.1 µM
- IC50 [24]: > 10 µM
- IC50 [5]: 0.69 µM
- IC50 [11]: 0.52 µM

The next lines start with results.

- IC50 [10]: 3.11 µM
Structure (SMILES): CC[C@@H](C(=O)[C@@H](C)[C@@H](O)[C@H](C)[C@@H]1O[C@@H]([C@@H](CC)C(=O)O)CC[C@@H]1C)[C@H]1O[C@]2(CCC(=O)[C@]3(CC[C@@](C)([C@H]4CC[C@](O)(CC)[C@H](C)O4)O3)O2)[C@H](C)C[C@@H]1C
- IC50 [11]: 2.68 µM

- IC50 [7]: > 10 µM
Structure (SMILES): CC[C@@H](C(=O)[C@@H](C)[C@@H](O)[C@H](C)[C@@H]1O[C@@H]([C@@H](CC)C(=O)O)CC[C@@H]1C)[C@H]1O[C@]2(CCC[C@]3(CC[C@@](C)([C@H]4CC[C@](O)(CC)[C@H](C)O4)O3)O2)[C@H](C)C[C@@H]1C
- IC50 [8]: 2.08 µM

- IC50 [10]: 0.89 µM
Structure (SMILES): CC[C@@H](C(=O)[C@@H](C)[C@@H](O)[C@H](C)[C@@H]1O[C@@H]([C@@H](CC)C(=O)O)CC[C@@H]1C)[C@H]1O[C@]2(CC[C@@H](O)[C@]3(CC[C@@](C)([C@H]4CC[C@](O)(CC)[C@H](C)O4)O3)O2)[C@H](C)C[C@@H]1C
- IC50 [11]: 1 µM

- IC50 [12]: 4.36 µM
Structure (SMILES): CC[C@@H](C(=O)[C@@H](C)[C@@H](O)[C@H](C)[C@@H]1O[C@@H]([C@@H](CC)C(=O)OCC[Si](C)(C)C)CC[C@@H]1C)[C@H]1O[C@]2(C=C[C@@H](O)[C@]3(CC[C@@](C)([C@H]4CC[C@](O)(CC)[C@H](C)O4)O3)O2)[C@H](C)C[C@@H]1C

- IC50 [10]: 12.5 µM
Structure (SMILES): CC[C@@H]([C@H](O)[C@@H](C)[C@@H](O)[C@H](C)[C@@H]1O[C@@H]([C@@H](CC)C(=O)O)CC[C@@H]1C)[C@H]1O[C@]2(C=C[C@@H](O)[C@]3(CC[C@@](C)([C@H]4CC[C@](O)(CC)[C@H](C)O4)O3)O2)[C@H](C)C[C@@H]1C
- IC50 [11]: 15.6 µM

Source: ChEMBL document CHEMBL4316586, “A comprehensive review of salinomycin derivatives as potent anticancer and anti-CSCs agents” (Eur J Med Chem, 2019)
